What was measured:
Type in all cases: in vivo
ducksalad [1] = test: Test Example 1: herbicidal effects in preemergence treatment under submerged conditions; conditions: dose 2.52 g/a
Source text: (§1) Test on the Herbicidal Effects in Preemergence Treatment on Weeds Under Submerged Conditions
(§2) Alluvial soil was put in 1/30000-are styrol cups and admixed with water so that it was submerged at a depth of 4 cm. In each cup, seeds of barnyardgrass, bulrush and ducksalad were sown together, and rice seedlings at the 2.5-leaf stage were transplanted. On the same day as the seeding, emulsifiable concentrates containing compounds of the present invention formulated in accordance with Formulation Example 2 were applied to the water surfaces at predetermined doses after diluted with water. The cups were placed in a greenhouse at 25 to 30° C. to grow the plants. Three weeks after the application, the herbicidal effects against various plants were determined on the following evaluation scale.
(§3) 5 mortality of 90% or above (nearly complete death)
(§4) 4 mortality of at least 70% and less than 90%
(§5) 3 mortality of at least 40% and less than 70%
(§6) 2 mortality of at least 20% and less than 40%
(§7) 1 mortality of at least 5% and less than 20%
(§8) 0 mortality of less than 5% (almost ineffective)
(§9) A: barnyardgrass, B: bulrush, C: ducksalad, D: large crabgrass, E: giant foxtail, F: wild oat, G: water foxtail, H: Italian ryegrass, I: velvetleaf, J: common ragweed, K: redroot pigweed, L: common lambsquater, M: posumbu knotweed, N: common chickweed, O: beadstraw, a: transplanted rice, b: corn, c: soybean, d: direct-seeded rice, e: wheat, f: sugar beet.
(§10) The doses (g/a) represents the amounts in g per 1 are (a) applied after adjustment of concentration adjustment.

barnyardgrass [2] = test: as above; conditions: dose 2.52 g/a
Source text: as §1, §2, §3, §4, §5, §6, §7, §8, §9, §10

bulrush [3] = test: as above; conditions: dose 2.52 g/a
Source text: as §1, §2, §3, §4, §5, §6, §7, §8, §9, §10

transplanted rice = test: Test Example 1: preemergence treatment under submerged conditions, effect on crop; conditions: dose 2.52 g/a
Source text: as §1, §2, §3, §4, §5, §6, §7, §8, §9, §10

ducksalad [4] = test: Test Example 2: herbicidal effects during the vegetation period under submerged conditions; conditions: treatment during the vegetation period under submerged conditions; dose 2.52 g/a
Procedure: (§11) Test on the Herbicidal Effects on Weeds During the Vegetation Period Under Submerged Conditions
(§12) Alluvial soil was put in 1/30000-are styrol cups and admixed with water so that it was submerged at a depth of 4 cm. In each cup, seeds of barnyardgrass, bulrush and ducksalad were sown together, and the cups were placed in a greenhouse at 25 to 30° C. to grow the plants. When the barnyardgrass, bulrush and ducksalad reached the 1- or 2-leaf stage, emulsifiable concentrates containing compounds of the present invention formulated in accordance with Formulation Example 2 were applied to the water surfaces at predetermined doses after diluted with water. Three weeks after the application, the herbicidal effects against various plants were determined on the same evaluation scale as in Test Example 1.
as §9, §10

barnyardgrass [5] = test: as above; conditions: treatment during the vegetation period under submerged conditions; dose 2.52 g/a
Procedure: as §11, §12, §9, §10

bulrush [6] = test: as above; conditions: treatment during the vegetation period under submerged conditions; dose 2.52 g/a
Procedure: as §11, §12, §9, §10

water foxtail [7] = test: Test Example 3: herbicidal effects in soil treatment; conditions: dose 3.2 g/a
Source text: (§13) Test on the Herbicidal Effects in Soil Treatment
(§14) Sterilized diluvial soil was put in plastic boxes with a length of 21 cm, a width of 13 cm and a depth of 7 cm, and seeds of barnyardgrass, large crabgrass, giant foxtail, wild oat, blackgrass, velvetleaf, common ragweed, redroot pigweed, common lambsquater, posumbu knotweed, common chickweed corn, soybean, rice, wheat and sugar beet were sown in spots and covered with an about 1.5 cm-thick soil layer. Emulsifiable concentrates containing compounds of the present invention formulated in accordance with Formulation Example 2 were uniformly applied to the soil surfaces at predetermined doses through a small sprayer after dilute with water. Three weeks after the application, the herbicidal effects against various plants were determined on the same evaluation scale as in Test Example 1.
as §9, §10

redroot pigweed [8] = test: as above; conditions: dose 3.2 g/a
Source text: as §13, §14, §9, §10

giant foxtail [9] = test: as above; conditions: dose 3.2 g/a
Source text: as §13, §14, §9, §10

posumbu knotweed [10] = test: as above; conditions: dose 3.2 g/a
Source text: as §13, §14, §9, §10

barnyardgrass [11] = test: as above; conditions: dose 3.2 g/a
Source text: as §13, §14, §9, §10

common lambsquater [12] = test: as above; conditions: dose 3.2 g/a
Source text: as §13, §14, §9, §10

Italian ryegrass [13] = test: as above; conditions: dose 3.2 g/a
Source text: as §13, §14, §9, §10

common ragweed [14] = test: as above; conditions: dose 3.2 g/a
Source text: as §13, §14, §9, §10

large crabgrass [15] = test: as above; conditions: dose 3.2 g/a
Source text: as §13, §14, §9, §10

common chickweed [16] = test: as above; conditions: dose 3.2 g/a
Source text: as §13, §14, §9, §10

water foxtail [17] = test: Test Example 4: herbicidal effect in foliage treatment; conditions: dose 3.2 g/a, three weeks after application
Source text: (§15) Test on the Herbicidal Effect in Foliage Treatment
as §14, with “chickweed,” for “chickweed”, “The boxes were placed in a greenhouse at 25 to 30° C. to grow the plants. After 14 days, emulsifiable” for “Emulsifiable”, “foliage” for “soil surfaces”, “diluted” for “dilute”
as §9, §10

redroot pigweed [18] = test: as above; conditions: dose 3.2 g/a, three weeks after application
Source text: as §15
as §14, with “chickweed,” for “chickweed”, “The boxes were placed in a greenhouse at 25 to 30° C. to grow the plants. After 14 days, emulsifiable” for “Emulsifiable”, “foliage” for “soil surfaces”, “diluted” for “dilute”
as §9, §10

giant foxtail [19] = test: as above; conditions: dose 3.2 g/a, three weeks after application
Source text: as §15
as §14, with “chickweed,” for “chickweed”, “The boxes were placed in a greenhouse at 25 to 30° C. to grow the plants. After 14 days, emulsifiable” for “Emulsifiable”, “foliage” for “soil surfaces”, “diluted” for “dilute”
as §9, §10

posumbu knotweed [20] = test: as above; conditions: dose 3.2 g/a, three weeks after application
Source text: as §15
as §14, with “chickweed,” for “chickweed”, “The boxes were placed in a greenhouse at 25 to 30° C. to grow the plants. After 14 days, emulsifiable” for “Emulsifiable”, “foliage” for “soil surfaces”, “diluted” for “dilute”
as §9, §10

barnyardgrass [21] = test: as above; conditions: dose 3.2 g/a, three weeks after application
Source text: as §15
as §14, with “chickweed,” for “chickweed”, “The boxes were placed in a greenhouse at 25 to 30° C. to grow the plants. After 14 days, emulsifiable” for “Emulsifiable”, “foliage” for “soil surfaces”, “diluted” for “dilute”
as §9, §10

common lambsquater [22] = test: as above; conditions: dose 3.2 g/a, three weeks after application
Source text: as §15
as §14, with “chickweed,” for “chickweed”, “The boxes were placed in a greenhouse at 25 to 30° C. to grow the plants. After 14 days, emulsifiable” for “Emulsifiable”, “foliage” for “soil surfaces”, “diluted” for “dilute”
as §9, §10

Italian ryegrass [23] = test: as above; conditions: dose 3.2 g/a, three weeks after application
Source text: as §15
as §14, with “chickweed,” for “chickweed”, “The boxes were placed in a greenhouse at 25 to 30° C. to grow the plants. After 14 days, emulsifiable” for “Emulsifiable”, “foliage” for “soil surfaces”, “diluted” for “dilute”
as §9, §10

common ragweed [24] = test: as above; conditions: dose 3.2 g/a, three weeks after application
Source text: as §15
as §14, with “chickweed,” for “chickweed”, “The boxes were placed in a greenhouse at 25 to 30° C. to grow the plants. After 14 days, emulsifiable” for “Emulsifiable”, “foliage” for “soil surfaces”, “diluted” for “dilute”
as §9, §10

velvetleaf = test: as above; conditions: dose 3.2 g/a, three weeks after application
Source text: as §15
as §14, with “chickweed,” for “chickweed”, “The boxes were placed in a greenhouse at 25 to 30° C. to grow the plants. After 14 days, emulsifiable” for “Emulsifiable”, “foliage” for “soil surfaces”, “diluted” for “dilute”
as §9, §10

beadstraw = test: as above; conditions: dose 3.2 g/a, three weeks after application
Source text: as §15
as §14, with “chickweed,” for “chickweed”, “The boxes were placed in a greenhouse at 25 to 30° C. to grow the plants. After 14 days, emulsifiable” for “Emulsifiable”, “foliage” for “soil surfaces”, “diluted” for “dilute”
as §9, §10

large crabgrass [25] = test: as above; conditions: dose 3.2 g/a, three weeks after application
Source text: as §15
as §14, with “chickweed,” for “chickweed”, “The boxes were placed in a greenhouse at 25 to 30° C. to grow the plants. After 14 days, emulsifiable” for “Emulsifiable”, “foliage” for “soil surfaces”, “diluted” for “dilute”
as §9, §10

common chickweed [26] = test: as above; conditions: dose 3.2 g/a, three weeks after application
Source text: as §15
as §14, with “chickweed,” for “chickweed”, “The boxes were placed in a greenhouse at 25 to 30° C. to grow the plants. After 14 days, emulsifiable” for “Emulsifiable”, “foliage” for “soil surfaces”, “diluted” for “dilute”
as §9, §10

CC(C)COC(=O)N(c1ccccc1CN1COC(C)(C(F)(F)F)CC1=O)S(=O)(=O)C(F)(F)F (centres unmarked) [II-50]
C: ducksalad, herbicidal effect (evaluation scale 0-5) (ducksalad [1]): 5 (mortality of 90% or above (nearly complete death))
A: barnyardgrass, herbicidal effect (evaluation scale 0-5) (barnyardgrass [2]): 5 (mortality of 90% or above (nearly complete death))
B: bulrush, herbicidal effect (evaluation scale 0-5) (bulrush [3]): 5 (mortality of 90% or above (nearly complete death))
a: transplanted rice, effect on crop (evaluation scale 0-5) (transplanted rice): 0 (mortality of less than 5% (almost ineffective))
C: ducksalad, herbicidal effect (evaluation scale 0-5) (ducksalad [4]): 5 (mortality of 90% or above (nearly complete death))
A: barnyardgrass, herbicidal effect (evaluation scale 0-5) (barnyardgrass [5]): 5 (mortality of 90% or above (nearly complete death))
B: bulrush, herbicidal effect (evaluation scale 0-5) (bulrush [6]): 5 (mortality of 90% or above (nearly complete death))
G: water foxtail, herbicidal effect (evaluation scale 0-5) (water foxtail [7]): 4 (mortality of at least 70% and less than 90%)
K: redroot pigweed, herbicidal effect (evaluation scale 0-5) (redroot pigweed [8]): 0 (mortality of less than 5% (almost ineffective))
E: giant foxtail, herbicidal effect (evaluation scale 0-5) (giant foxtail [9]): 2 (mortality of at least 20% and less than 40%)
M: posumbu knotweed, herbicidal effect (evaluation scale 0-5) (posumbu knotweed [10]): 0 (mortality of less than 5% (almost ineffective))
A: barnyardgrass, herbicidal effect (evaluation scale 0-5) (barnyardgrass [11]): 4 (mortality of at least 70% and less than 90%)
L: common lambsquater, herbicidal effect (evaluation scale 0-5) (common lambsquater [12]): 3 (mortality of at least 40% and less than 70%)
H: Italian ryegrass, herbicidal effect (evaluation scale 0-5) (Italian ryegrass [13]): 0 (mortality of less than 5% (almost ineffective))
J: common ragweed, herbicidal effect (evaluation scale 0-5) (common ragweed [14]): 3 (mortality of at least 40% and less than 70%)
D: large crabgrass, herbicidal effect (evaluation scale 0-5) (large crabgrass [15]): 3 (mortality of at least 40% and less than 70%)
N: common chickweed, herbicidal effect (evaluation scale 0-5) (common chickweed [16]): 3 (mortality of at least 40% and less than 70%)
G: water foxtail, herbicidal effect (water foxtail [17]): 1 (mortality of at least 5% and less than 20%)
K: redroot pigweed, herbicidal effect (redroot pigweed [18]): 0 (mortality of less than 5% (almost ineffective))
E: giant foxtail, herbicidal effect (giant foxtail [19]): 0 (mortality of less than 5% (almost ineffective))
M: posumbu knotweed, herbicidal effect (posumbu knotweed [20]): 0 (mortality of less than 5% (almost ineffective))
A: barnyardgrass, herbicidal effect (barnyardgrass [21]): 3 (mortality of at least 40% and less than 70%)
L: common lambsquater, herbicidal effect (common lambsquater [22]): 2 (mortality of at least 20% and less than 40%)
H: Italian ryegrass, herbicidal effect (Italian ryegrass [23]): 0 (mortality of less than 5% (almost ineffective))
J: common ragweed, herbicidal effect (common ragweed [24]): 3 (mortality of at least 40% and less than 70%)
I: velvetleaf, herbicidal effect (velvetleaf): 0 (mortality of less than 5% (almost ineffective))
O: beadstraw, herbicidal effect (beadstraw): 4 (mortality of at least 70% and less than 90%)
D: large crabgrass, herbicidal effect (large crabgrass [25]): 0 (mortality of less than 5% (almost ineffective))
N: common chickweed, herbicidal effect (common chickweed [26]): 3 (mortality of at least 40% and less than 70%)

Reference: patent US20120029187A1, “HALOALKYLSULFONANILIDE DERIVATIVE” (Nissan Chemical Industries, Ltd., priority 2009, published 2012)
